Assay results as given in ChEMBL document CHEMBL1201862, “PubChem BioAssay data set” (2004).
One block for each compound: values may come before it. The source made the active and inactive calls.

What was measured:
[1] = biological target: T1, Calpain-2 catalytic subunit (Sus scrofa, UniProt P43367); experiment: m-calpain protease blockers, concentration series – biochemical, fluorogenic peptide substrate, dose response (AID 1420); assay type: functional
T1 sequence (P43367 whole entry): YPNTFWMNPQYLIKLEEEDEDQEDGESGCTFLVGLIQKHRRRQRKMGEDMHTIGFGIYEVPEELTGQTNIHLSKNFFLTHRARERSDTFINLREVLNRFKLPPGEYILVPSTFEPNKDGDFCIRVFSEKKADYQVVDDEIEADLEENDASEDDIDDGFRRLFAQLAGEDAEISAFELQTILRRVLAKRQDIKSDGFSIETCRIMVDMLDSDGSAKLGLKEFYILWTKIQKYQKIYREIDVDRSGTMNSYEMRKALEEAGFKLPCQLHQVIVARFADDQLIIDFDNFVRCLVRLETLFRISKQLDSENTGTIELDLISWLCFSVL

[2] = biological target: T2, Heat shock factor protein 1 (Mus musculus, UniProt P38532); experiment: enhancement of HSF1-driven luciferase signal – cell-based, NIH3T3, luminescence, dose retest, confirmation (AID 435004); assay type: functional;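 note: stress induced by proteasome inhibitor MG132 added 30 min after compound; luciferase reporter driven by HSF1 response element in NIH3T3 cells; actives raise luminescence as potentiators of the MG132 stress response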
T2 sequence (P38532 whole entry): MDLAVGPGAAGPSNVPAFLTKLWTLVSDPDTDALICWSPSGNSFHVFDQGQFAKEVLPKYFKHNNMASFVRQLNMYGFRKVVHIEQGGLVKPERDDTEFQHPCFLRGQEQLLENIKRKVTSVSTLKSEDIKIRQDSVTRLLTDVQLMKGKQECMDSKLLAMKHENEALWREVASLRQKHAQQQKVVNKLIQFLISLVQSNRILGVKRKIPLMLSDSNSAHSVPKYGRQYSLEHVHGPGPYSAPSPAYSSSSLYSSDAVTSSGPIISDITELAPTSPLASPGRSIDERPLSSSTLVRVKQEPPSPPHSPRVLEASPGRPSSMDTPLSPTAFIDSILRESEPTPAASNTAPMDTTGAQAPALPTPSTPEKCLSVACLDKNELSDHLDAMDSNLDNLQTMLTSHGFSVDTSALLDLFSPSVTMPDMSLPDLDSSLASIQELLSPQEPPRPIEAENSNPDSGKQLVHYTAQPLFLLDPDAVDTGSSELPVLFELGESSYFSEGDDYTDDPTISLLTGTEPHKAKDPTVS

[3] = Luminescence Cell-Based Dose Response HTS to Identify Activators of Luciferase Translation or Activity in H4 […] Cells. [Related pubchem assays: 1829 (Project Summary), 1814 (Primary HTS)]; assay type: functional
[4] = biological target: T3, Corticotropin-releasing factor receptor 2/Corticotropin-releasing factor-binding protein (Homo sapiens, UniProt P24387+Q13324); experiment: Dose Response confirmation of uHTS hits for small molecule antagonists of the CRF-binding protein and CRF-R2 receptor complex.; assay type: functional; settings: read-out: IC50_Mean
T3 sequence (Q13324 whole entry): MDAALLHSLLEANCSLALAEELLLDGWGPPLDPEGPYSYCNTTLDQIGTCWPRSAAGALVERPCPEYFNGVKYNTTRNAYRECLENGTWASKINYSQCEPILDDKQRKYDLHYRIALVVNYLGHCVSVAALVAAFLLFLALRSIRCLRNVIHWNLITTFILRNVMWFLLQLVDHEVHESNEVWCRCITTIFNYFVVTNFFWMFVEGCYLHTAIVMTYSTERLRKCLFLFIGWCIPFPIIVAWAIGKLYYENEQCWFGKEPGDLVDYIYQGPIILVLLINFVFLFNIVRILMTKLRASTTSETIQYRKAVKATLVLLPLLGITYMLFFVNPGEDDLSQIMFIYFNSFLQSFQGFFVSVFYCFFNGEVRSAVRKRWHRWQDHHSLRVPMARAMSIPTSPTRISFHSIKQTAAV
T3 sequence (P24387 whole entry): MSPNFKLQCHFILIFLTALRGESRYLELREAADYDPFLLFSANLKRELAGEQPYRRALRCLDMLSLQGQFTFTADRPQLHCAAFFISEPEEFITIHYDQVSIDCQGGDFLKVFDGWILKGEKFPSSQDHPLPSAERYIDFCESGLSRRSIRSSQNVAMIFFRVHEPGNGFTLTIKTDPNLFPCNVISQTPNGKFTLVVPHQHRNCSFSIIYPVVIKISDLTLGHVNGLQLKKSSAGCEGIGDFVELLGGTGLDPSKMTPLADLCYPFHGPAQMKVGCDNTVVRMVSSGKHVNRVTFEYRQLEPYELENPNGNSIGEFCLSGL

[5] = biological target: T3, Corticotropin-releasing factor receptor 2/Corticotropin-releasing factor-binding protein; experiment: activators of CRF receptor 2 with binding protein – uHTS hits, confirmation (AID 602473); assay type: functional; settings: read-out: EC50_Mean
[6] = biological target: Large T antigen (Simian virus 40, UniProt P03070); assay type: functional, Betapolyomavirus macacae;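 note: Confirmatory-stage PubChem screen for compounds that inhibit SV40 T antigen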
Sequence of Large T antigen (P03070 whole entry): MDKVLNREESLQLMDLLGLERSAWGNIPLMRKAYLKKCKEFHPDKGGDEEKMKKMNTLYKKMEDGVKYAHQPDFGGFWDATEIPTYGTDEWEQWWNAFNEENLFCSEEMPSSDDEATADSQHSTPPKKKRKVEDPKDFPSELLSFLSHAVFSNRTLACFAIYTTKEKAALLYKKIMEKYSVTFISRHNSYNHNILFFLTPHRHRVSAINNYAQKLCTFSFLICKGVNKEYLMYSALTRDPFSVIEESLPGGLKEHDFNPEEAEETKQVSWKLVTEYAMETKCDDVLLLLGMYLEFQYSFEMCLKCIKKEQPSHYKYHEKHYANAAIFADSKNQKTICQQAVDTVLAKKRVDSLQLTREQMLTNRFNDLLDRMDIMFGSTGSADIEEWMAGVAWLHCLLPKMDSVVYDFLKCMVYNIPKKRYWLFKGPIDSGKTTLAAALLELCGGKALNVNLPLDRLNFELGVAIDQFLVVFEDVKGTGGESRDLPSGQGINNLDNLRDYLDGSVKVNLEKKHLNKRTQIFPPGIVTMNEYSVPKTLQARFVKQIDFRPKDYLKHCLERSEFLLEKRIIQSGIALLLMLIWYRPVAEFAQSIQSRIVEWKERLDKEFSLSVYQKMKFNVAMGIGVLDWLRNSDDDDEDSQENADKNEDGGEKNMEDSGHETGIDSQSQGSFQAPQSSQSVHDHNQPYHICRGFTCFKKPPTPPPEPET

[7] = biological target: T4, Rac GTPase-activating protein 1 (Homo sapiens, UniProt Q9H0H5); experiment: blockers of MgcRacGAP-driven Rac1 GTP hydrolysis – biochemical, ADP Hunter fluorescence, primary and confirmatory, confirmation (AID 624330); assay type: functional
T4 sequence (Q9H0H5 whole entry): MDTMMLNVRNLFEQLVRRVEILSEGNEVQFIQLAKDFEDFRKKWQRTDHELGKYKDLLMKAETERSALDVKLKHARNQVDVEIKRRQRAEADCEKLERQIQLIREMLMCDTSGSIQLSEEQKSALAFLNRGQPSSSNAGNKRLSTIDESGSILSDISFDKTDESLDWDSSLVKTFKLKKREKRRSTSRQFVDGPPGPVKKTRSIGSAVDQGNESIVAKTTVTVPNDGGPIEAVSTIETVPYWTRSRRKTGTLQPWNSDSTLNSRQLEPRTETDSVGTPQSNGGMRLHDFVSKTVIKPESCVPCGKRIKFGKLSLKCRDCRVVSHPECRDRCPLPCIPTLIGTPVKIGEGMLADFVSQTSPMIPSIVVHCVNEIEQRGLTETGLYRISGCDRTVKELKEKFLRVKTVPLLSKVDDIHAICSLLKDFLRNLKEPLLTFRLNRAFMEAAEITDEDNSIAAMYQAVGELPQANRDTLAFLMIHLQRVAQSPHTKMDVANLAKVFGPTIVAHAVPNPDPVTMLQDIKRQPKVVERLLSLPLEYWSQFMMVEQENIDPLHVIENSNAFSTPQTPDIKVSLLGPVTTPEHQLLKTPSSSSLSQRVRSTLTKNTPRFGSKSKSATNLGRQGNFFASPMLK

[8] = Trypanosoma cruzi growth suppression in host cells – NIH3T3 host cells, beta-gal luminescence, confirmation (AID 2044); assay type: functional, cell-based;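 note: intracellular parasites grown in NIH/3T3 mouse fibroblasts as host cells; luminescent beta-galactosidase reporter signal from transgenic T. cruzi replicating inside host cells; inhibitors lower the luminescence signal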
[9] = NIH3T3 cell viability loss – ATP luminescence, mouse fibroblasts, counter-screen, dose response (AID 2010); assay type: functional, cell-based;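 note: cells exposed to compound for about 90 hours before reading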
[10] = reduction of Shn3 3'UTR-driven luciferase in osteoblasts – cell-based, Clone20 osteoblasts, firefly luciferase, cherry-picked, dose response (AID 624132); assay type: functional;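 note: firefly luciferase luminescence from reporter carrying the Shn3 3'UTR in osteoblasts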
[11] = non-specific 3'UTR reporter inhibition in Clone20-Shn3RL – cell-based, Renilla luciferase, cherry-picked, counter-screen for Shn3 inhibitor project, dose response (AID 624133); assay type: functional
[12] = biological target: T5, Fatty acid synthase (Homo sapiens, UniProt P49327); experiment: inhibition of human FAS-TE enzyme activity – biochemical, endpoint fluorescence intensity, uHTS hits, dose response (AID 624327); assay type: functional;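 note: fluorescence from hydrolysis of an O-methyl fluorescein acyl ester substrate by the enzyme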
T5 sequence (P49327 whole entry): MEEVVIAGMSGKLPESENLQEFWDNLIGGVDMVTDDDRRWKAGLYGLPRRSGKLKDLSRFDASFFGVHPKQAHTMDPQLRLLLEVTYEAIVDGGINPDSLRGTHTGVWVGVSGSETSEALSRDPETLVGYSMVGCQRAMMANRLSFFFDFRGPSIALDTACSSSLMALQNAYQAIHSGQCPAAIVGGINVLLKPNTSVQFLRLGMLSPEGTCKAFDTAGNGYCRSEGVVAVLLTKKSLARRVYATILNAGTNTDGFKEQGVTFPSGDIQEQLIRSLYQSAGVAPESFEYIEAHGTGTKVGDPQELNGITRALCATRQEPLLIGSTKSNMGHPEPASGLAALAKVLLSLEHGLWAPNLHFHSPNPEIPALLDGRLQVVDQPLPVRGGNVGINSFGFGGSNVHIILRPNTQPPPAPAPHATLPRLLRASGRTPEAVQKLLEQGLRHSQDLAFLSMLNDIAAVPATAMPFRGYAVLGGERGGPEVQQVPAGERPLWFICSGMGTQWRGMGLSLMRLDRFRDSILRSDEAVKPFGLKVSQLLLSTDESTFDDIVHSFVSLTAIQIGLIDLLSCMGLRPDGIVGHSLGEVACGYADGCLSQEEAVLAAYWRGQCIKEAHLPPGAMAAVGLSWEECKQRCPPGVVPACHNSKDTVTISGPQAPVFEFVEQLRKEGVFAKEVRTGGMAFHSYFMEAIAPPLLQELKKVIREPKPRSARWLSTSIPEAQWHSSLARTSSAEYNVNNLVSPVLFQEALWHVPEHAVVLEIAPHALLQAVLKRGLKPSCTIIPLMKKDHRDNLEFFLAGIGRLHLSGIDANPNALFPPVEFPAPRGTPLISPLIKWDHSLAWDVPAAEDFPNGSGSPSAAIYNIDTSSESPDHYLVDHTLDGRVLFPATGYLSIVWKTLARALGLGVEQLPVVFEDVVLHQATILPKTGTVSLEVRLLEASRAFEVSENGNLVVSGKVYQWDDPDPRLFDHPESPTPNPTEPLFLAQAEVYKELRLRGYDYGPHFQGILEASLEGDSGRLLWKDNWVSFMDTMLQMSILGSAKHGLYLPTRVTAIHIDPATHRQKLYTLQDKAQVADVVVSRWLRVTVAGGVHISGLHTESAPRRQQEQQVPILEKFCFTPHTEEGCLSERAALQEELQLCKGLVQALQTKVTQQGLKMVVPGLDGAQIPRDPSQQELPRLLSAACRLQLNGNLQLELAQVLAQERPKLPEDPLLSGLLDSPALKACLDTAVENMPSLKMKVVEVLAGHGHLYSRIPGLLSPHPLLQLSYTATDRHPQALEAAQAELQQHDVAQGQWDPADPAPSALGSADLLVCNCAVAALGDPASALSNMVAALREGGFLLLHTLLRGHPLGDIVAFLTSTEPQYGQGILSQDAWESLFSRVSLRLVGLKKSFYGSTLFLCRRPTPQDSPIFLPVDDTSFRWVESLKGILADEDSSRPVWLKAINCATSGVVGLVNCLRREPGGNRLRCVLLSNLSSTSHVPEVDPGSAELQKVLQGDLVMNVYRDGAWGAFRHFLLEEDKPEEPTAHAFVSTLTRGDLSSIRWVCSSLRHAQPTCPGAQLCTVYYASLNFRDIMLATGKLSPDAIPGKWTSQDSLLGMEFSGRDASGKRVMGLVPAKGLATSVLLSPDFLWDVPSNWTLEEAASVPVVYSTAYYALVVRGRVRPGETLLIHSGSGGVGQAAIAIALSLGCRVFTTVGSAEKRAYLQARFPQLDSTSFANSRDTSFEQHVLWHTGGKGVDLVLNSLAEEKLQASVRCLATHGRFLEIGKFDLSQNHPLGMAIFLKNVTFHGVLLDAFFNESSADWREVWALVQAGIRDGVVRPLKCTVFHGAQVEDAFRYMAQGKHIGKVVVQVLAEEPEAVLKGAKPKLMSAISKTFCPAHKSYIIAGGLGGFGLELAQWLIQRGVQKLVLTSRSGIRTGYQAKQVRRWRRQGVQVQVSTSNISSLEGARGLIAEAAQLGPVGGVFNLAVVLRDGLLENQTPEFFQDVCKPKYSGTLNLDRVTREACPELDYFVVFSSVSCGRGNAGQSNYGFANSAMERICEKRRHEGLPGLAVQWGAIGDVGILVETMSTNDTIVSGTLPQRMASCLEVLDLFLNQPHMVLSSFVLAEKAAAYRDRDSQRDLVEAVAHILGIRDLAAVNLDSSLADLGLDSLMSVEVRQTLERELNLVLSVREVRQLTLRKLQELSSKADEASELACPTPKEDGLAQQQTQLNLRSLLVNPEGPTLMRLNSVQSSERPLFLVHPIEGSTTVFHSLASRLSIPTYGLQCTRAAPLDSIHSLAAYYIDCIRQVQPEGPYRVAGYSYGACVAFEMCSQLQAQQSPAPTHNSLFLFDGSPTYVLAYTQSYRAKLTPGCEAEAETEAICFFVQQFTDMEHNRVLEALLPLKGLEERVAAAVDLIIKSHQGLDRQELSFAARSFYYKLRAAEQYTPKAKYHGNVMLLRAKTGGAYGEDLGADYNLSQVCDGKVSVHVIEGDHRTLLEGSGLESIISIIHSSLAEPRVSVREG

[13] = biological target: T5, Fatty acid synthase; experiment: inhibition of human FAS-TE enzyme activity – biochemical, kinetic fluorescence intensity, dose response (AID 624326); assay type: functional;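 note: rate of fluorescence rise from hydrolysis of a fluorogenic O-methyl fluorescein ester substrate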
[14] = Luminescence Cell-Based Dose Retest to Confirm Inhibitors of Cancer Stem Cells. [Related pubchem assays (depositor defined):AID2717, AID2721]; assay type: functional; settings: Homo sapiens
[15] = biological target: FAD-linked sulfhydryl oxidase ALR (Homo sapiens, UniProt P55789); experiment: ALR-catalysed DTT oxidation blockers – biochemical, H2O2 detection, luminescence, cherry-pick, dose response (AID 493248)
Sequence of FAD-linked sulfhydryl oxidase ALR (P55789 whole entry): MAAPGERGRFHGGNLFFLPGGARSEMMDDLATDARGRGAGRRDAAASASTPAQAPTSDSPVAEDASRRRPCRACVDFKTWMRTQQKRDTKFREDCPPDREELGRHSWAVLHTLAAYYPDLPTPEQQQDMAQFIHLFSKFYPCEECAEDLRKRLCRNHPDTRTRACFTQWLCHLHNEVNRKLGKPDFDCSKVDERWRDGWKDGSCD

IC50 [1]: 7.01 µM (not active)
Compound: O=C(CCC1CCCCC1)Nc1ccc(C(=O)c2ccncc2)cc1

EC50 [2]: > 260 µM (inactive)
Compound: COC(=O)[C@H](CCSC)NC(=O)Nc1cccc(C)c1C

Compound: O=C(COC(=O)c1cccnc1O)NCCc1ccc(Cl)cc1Cl
EC50 [3]: 367 nM (active)

EC50 [2]: 216 µM (active)
Compound: COc1ccc(-c2[nH]ncc2CN2CCN(C3CCCCC3)C(=O)C2)cc1F

IC50 [4]: > 47.1 µM (inactive)
EC50 [5]: > 53 µM (inactive)
Compound: COc1ccc(CN(C)Cc2nc3scc(-c4ccccc4)c3c(=O)[nH]2)cc1OC

IC50 [6]: 7.7 µM (active)
IC50 [7]: 46.4 µM (active)
Compound: CN1C=CC=C/C1=C(\C#N)c1nc2ccccc2[nH]1

IC50 [4]: > 47.1 µM (inactive)
EC50 [5]: > 53 µM (inactive)
Compound: COc1ccc(NC(=O)Nc2nnc(C(C)(C)C)s2)cc1

IC50 [4]: > 47.1 µM (inactive)
EC50 [5]: > 53 µM (inactive)
Compound: COCCNC(=S)N1CCc2cc(OC)c(OC)cc2C1COc1ccc(C(C)C)cc1 (stereo not given)

Compound: COc1ccc2c(c1)c(CC(=O)Nc1cc(C)ccc1C)c(C)n2C(=O)c1ccc(Cl)cc1
EC50 [8]: 938 nM (active)
EC50 [9]: > 60 µM (not active)
AC50 [10]: 5.69 µM (active)
EC50 [5]: > 53 µM (inactive)
AC50 [11]: 13.1 µM (active)

IC50 [12]: 6.22 µM (active)
IC50 [13]: 5.48 µM (active)
Compound: COc1ccc2cc3cc(C(=O)N4CCCC(C)C4)oc3nc2c1 (stereo not given)

IC50 [12]: 15.8 µM (active)
IC50 [13]: 20.4 µM (inactive)
Compound: O=C(Cn1cc([N+](=O)[O-])ccc1=O)NCc1ccc(Cl)cc1Cl

IC50 [1]: 7.88 µM (not active)
Compound: Fc1ccc(Cn2nnnc2C(c2cccs2)N2CCCCCC2)cc1 (stereo not given)

IC50 [6]: 4.59 µM (active)
IC50 [4]: > 47.1 µM (inactive)
EC50 [5]: > 53 µM (inactive)
IC50 [7]: 15.7 µM (active)
Compound: NC1=NC(=O)S/C1=C\c1ccc(O)cc1

EC50 [2]: > 260 µM (inactive)
Compound: [O-][S+](Cc1cc(Sc2ccccc2)nc(-c2ccccc2)n1)c1ccccc1 (stereo not given)

IC50 [1]: 15.5 µM (not active)
Compound: COc1ccc(OC)c(NC(=O)COC(=O)CSc2ccc(Cl)cc2)c1

Compound: O=C(Nc1ccc(Nc2ccccc2)cc1)c1cc([N+](=O)[O-])ccc1Cl
AC50 [14]: 9.07 µM (active)
EC50 [2]: 5.63 µM (active)
IC50 [12]: 11.1 µM (active)
IC50 [13]: 14 µM (active)

IC50 [4]: > 47.1 µM (inactive)
EC50 [5]: > 53 µM (inactive)
Compound: O=C(c1ccc(F)cc1Cl)N(Cc1ccco1)C1CCS(=O)(=O)C1 (stereo not given)

IC50 [1]: 43.1 µM (not active)
Compound: O=C(c1cc2cc([N+](=O)[O-])ccc2s1)N1CCCCC1

IC50 [1]: 11.9 µM (not active)
Compound: O=C(Oc1ccc(Cl)c2cccnc12)C12CC3CC(CC(C3)C1)C2

IC50 [4]: > 47.1 µM (inactive)
EC50 [5]: > 53 µM (inactive)
Compound: O=C(NC(=S)NCC1CCCO1)C(c1ccccc1)c1ccccc1 (stereo not given)

IC50 [4]: > 47.1 µM (inactive)
EC50 [5]: > 53 µM (inactive)
Compound: O=C(O)C1CC(=O)N(CCOc2ccccc2)C1 (stereo not given)

IC50 [1]: > 50 µM (not active)
Compound: O=C(CSc1ccccn1)C12CC3CC(CC(C3)C1)C2

IC50 [1]: 4.01 µM (not active)
Compound: CCc1ccc(OCc2nnc(S)n2Cc2ccccc2)cc1

Compound: O=C(NCCc1ccccc1)c1ccc(Cl)nc1
EC50 [3]: 155 nM (inconclusive)

IC50 [6]: 19.1 µM (active)
Compound: COc1ccc(N2CCC(CN=C(S)Nc3c(C)cc(C)cc3C)C2)cc1 (stereo not given)

IC50 [12]: 8.77 µM (active)
IC50 [13]: 7.06 µM (active)
Compound: O=C(CCNC(=O)c1ccc([N+](=O)[O-])cc1)NC1CCCCCC1

IC50 [6]: 14.5 µM (active)
Compound: CCN(CC)c1ccc(NC(=O)C2CC(=O)N(Cc3ccccc3)C2)cc1 (stereo not given)

IC50 [1]: > 50 µM (not active)
Compound: Cn1nc(C(=O)OCC(=O)N2CCc3ccccc32)c2ccccc2c1=O

IC50 [12]: 15.9 µM (active)
IC50 [13]: 19.4 µM (active)
Compound: CCN(CC)c1cc2nonc2c2nonc12

Compound: O=C(/C=C/c1ccc(O)c(O)c1)O[C@@H]1C[C@](O)(C(=O)O)C[C@@H](O)[C@H]1O
IC50 [6]: 2.86 µM (active)

IC50 [1]: > 50 µM (not active)
Compound: O=C(CN1C(=O)/C(=C/c2cccc(Br)c2)SC1=S)NC1=NCCS1

IC50 [1]: 8.84 µM (not active)
Compound: C[C@@H](NC(=O)c1[nH]cnc1C(=O)N[C@@H](CCCCNC(=O)OC(C)(C)C)C(=O)OC(C)(C)C)c1ccccc1

IC50 [4]: > 47.1 µM (inactive)
EC50 [5]: > 53 µM (inactive)
Compound: O=c1cc(-c2ccccc2)ss1

IC50 [12]: 2.62 µM (active)
IC50 [13]: 1.97 µM (active)
Compound: COc1ccc([N+](=O)[O-])cc1/C=N/NC(=O)/C(=C\c1cccs1)NC(=O)c1ccccc1

IC50 [1]: > 50 µM (not active)
Compound: CNC(=S)N/N=C/C1=CCC2CC1C2(C)C (stereo not given)

IC50 [12]: 0.645 µM (active)
IC50 [13]: 0.846 µM (active)
Compound: CCN(CC)C(=O)C1CCCN(c2ccc([N+](=O)[O-])cc2/C=N/NC(=O)c2ccccc2)C1 (stereo not given)

IC50 [6]: 13 µM (active)
AC50 [15]: 1.5 µM (active)
IC50 [7]: 38.3 µM (active)
Compound: CN(C)/C=N/C1=NN(c2cccc(C(F)(F)F)c2)CC1

IC50 [12]: 13.7 µM (active)
IC50 [13]: 10.3 µM (active)
Compound: C/C(=N\Nc1ccccn1)c1ccc(S(=O)(=O)NCc2ccco2)cc1

IC50 [6]: 15 µM (active)
IC50 [7]: 50.2 µM (active)
Compound: COc1cc(/C=N/NC(=O)c2c(-c3ccccc3)noc2C)ccc1O

IC50 [6]: 6.52 µM (active)
IC50 [7]: 20.2 µM (active)
Compound: CCN(CC)c1ccc(/C=N/O)cc1

IC50 [6]: 53.3 µM (active)
Compound: COc1ccc(C(=O)/C=C(\C)Nc2ccc(NC(C)=O)cc2)cc1
